In patent publication US20180183541A9, “A New Treatment For Improving The Use Of Dietary Sugar For Energy Purposes” (Nutravis S.r.l., priority 2014, published 2018):
Read-outs that look alike come from different tables or passages of the source.

Columns and labels:
[1] = Body weight gain induced by chronic high-dose glucose in mice; assay type: in vivo, mouse; conditions: female CD1 mice, ABA 1 μg/Kg BW with glucose 1 g/Kg BW daily in drinking water, 12 weeks
Experimental: Five, week-old female CD1 mice (outbread) (9 per group) were administered glucose in the drinking water, without (controls) or with the addition of synthetic ABA. To achieve the required daily dose of glucose (1 g/kg BW) and of ABA (1 μg/Kg BW) the daily volume of water drank by the animals used for the test was preliminary established. Based on this volume (5 ml/day), and taking into account an average weight of the mice of 30 grams, the water administered to the animals, contained 0,006 g/ml of glucose and 0,006 μg/ml ABA. The weight control was performed after 12 weeks of treatment on the two groups of animals fasted for 17 hours before measurement of the weight. The reason for using female CD1 for this test was that they show a natural predisposition to accumulation of adipose tissue that is not found, instead, in males of the same strain.
FIG. 8. Daily oral intake of synthetic ABA at the dose of 1 μg/Kg reduces the body weight increase induced by the chronic intake of high-dose glucose (1g/Kg) in mice. Five-week old female CD1 mice (outbred) (9/group) received daily, in the drinking water, a glucose solution without (controls) or with synthetic ABA (see Materials and Methods for details). Body weight was determined after 12 weeks of treatment, and both groups of animals were fasted for 17 hours before measurement. […]

Male CD1 mice = test: Muscle performance in mice (spontaneous wheel running); assay type: in vivo, mouse; conditions: ABA 1 μg/Kg BW with glucose 1 g/Kg BW for 12 weeks
Experimental: Male CD1 mice (outbread) (8 per group) were administered glucose with the drinking water without (controls) or with the addition of synthetic ABA. The concentrations of glucose and of ABA in water were calculated considering the average daily volume drank by each mice so as to reach a dose of 1 g/Kg BW and 1 μg/Kg BW of ABA. After 12 weeks of treatment the mice (average weight 45.1 and 43.3 grams for the animals treated with glucose and glucose+ABA, respectively) were kept 12 hours in two separate cages, each equipped with a wheel connected to a digital odometer measuring the total distance traveled on the wheel and the time of rotation of the wheel. The tests were performed during the night time on animals with freely available food and water containing glucose alone (controls) or glucose+ABA. The reason for using male CD1 mice for this experiment is their natural predisposition to develop more muscle mass compared to females from the same strain.
Table 6. […] Male CD1mice (outbred) (8/group) with a mean weight of 45.1 and 43.3 g for animals treated with glucose and glucose+ABA, respectively, were kept for the same time (12 hours) in two cages, each containing a wheel connected to a digital cyclometer, capable of measuring the total distance travelled and the duration of rotation of the wheel. The tests (n=2 for each group of animals) were performed during the night hours, with ad libitum food and water, containing glucose (controls) or glucose+ABA.

[2] = Stability tests of ABA at high temperatures (autoclave sterilization); assay type: physicochemical; conditions: autoclave sterilization at 121° C. for 8 min; HPLC-MS
Experimental: Experiments were performed to evaluate the heat stability of synthetic ABA or of ABA naturally present in aqueous and supercritical extracts. Samples containing known nanomolar concentrations of ABA (either synthetic or present in the extracts) were divided into two aliquots of equal volume and subjected or not (control) to autoclave sterilization at 121° C. for 8 min (the condition generally applied to the sterilization of food). After sterilization, 100 μl of each aliquot and its un-sterilized control were injected into an analytical Hypercarb column (Thermo Scientific, Pittsburgh, Pa.) (4.6×100 mm; particle size 5 μm). Solvent A was water containing 0.1% formic acid (FOA), solvent B was acetonitrile containing 0.1% FOA and solvent flux was 0.8 ml/min. The linear elution gradient was from 100% A to 100% B in 30 min. Fractions were taken every 30 sec, lyophilized, re-dissolved in 11 μl of a solution composed of 90% solvent A and 10% solvent B of the HPLC-coupled mass spectrometry analysis and [^2H6]-ABA was added as an internal standard. Samples were analyzed as previously described under “Determination of the ABA content in several foods”. The amount of ABA present in the aliquots subjected to sterilization was unchanged compared with that measured in the control samples.

db/db mice = conditions: cited from earlier work
myoblasts = myoblasts incubated in vitro with 100 nM ABA (Bruzzone et al. 2012); cited from earlier work
[3] = In vivo hydrolysis of orally given ABA-GE to ABA, plasma HPLC-MS; parameters: species or system rat; conditions: 30 and 60 min after gavage of synthetic ABA-GE, Wistar rats n=3
From the text: Wistar rats (n=3) were given an amount of synthetic ABA-GE by gavage in order to evaluate its in vivo hydrolysis, resulting in the release of ABA. […] Therefore, the ABA-GE present in the aqueous apricot extract contributes to the effective dose of ABA taken with the extract, as it can be hydrolyzed to yield free ABA.
FIG. 4: HPLC-MS analysis of representative plasma samples from a rat subjected to gavage with a solution containing synthetic ABA-GE. […] The amount of ABA released by hydrolysis from its conjugated form ABA-GE at different times (30 and 60 min after gavage) was measured by HPLC-MS. The coefficient of absorbance of ABA-GE at 254 nm, used for chromatographic analysis, is approximately 10 times lower than that of free ABA. This explains the different area of their respective chromatographic peaks.

[4] = synthetic ABA 1 μg/Kg BW during OGTT
[5] = synthetic ABA 1 μg/Kg BW with glucose 1 g/Kg BW by gavage

Experimental for Wistar male rats: For the determination of blood glucose in rats, blood samples were taken from the tail vein of anesthetized animals and blood glucose was measured with a glucometer (Bayer). The quantification of insulin on the same animals, was carried out by sampling blood from the orbital sinus, immediately adding heparin and subjecting each sample to centrifugation at 22000×g for 30 sec: aliquots of plasma were stored at −20° C. The plasma insulin concentration was determined with an ELISA kit (Bertin-Pharma, Montigny, France).
Wistar male rats (obtained from Charles River, Milan, Italy), age between 9 and 13 weeks, were divided into two groups (12 animals per group) and fasted for 17 hours. After mild sedation with diazepam, 1 g/kg BW of glucose was administered by gavage in about 300-400 μl of aqueous solution, containing or not 1 μg/Kg BW of synthetic ABA, or the same dose of ABA or ABA-GE endogenously present in a supercritical or water plant extract. Immediately after gavage, rats were anesthetized with xylazine and ketamine. Blood glucose was measured with a glucometer on blood taken from the tail vein immediately before gavage (time zero) and 15, 30 and 60 minutes after gavage. Each measurement was performed in duplicate.
Two groups of male Wistar rats (12 animals per group), fasted for 17 hours, were subjected to an OGTT (1 g/Kg BW glucose) , without or with 1 μg/Kg BW of synthetic ABA. Glycemia was measured with a glucometer in duplicate on blood taken from the tail vein at baseline (immediately before gavage) and at the indicated times after gavage. Insulinemia was measured by ELISA, in duplicate on plasma samples. Results are mean ±SD.

chromatographic peak of free ABA in plasma compared to 0 min [3]	SMILES	weight increase compared to the controls [1]	maximal speed recorded compared with that of the controls (Male CD1 mice)	Time of use (Male CD1 mice; wheel available 12 hours)	Total distance covered (m) (Male CD1 mice; wheel available 12 hours)	amount of ABA after sterilization compared with control samples [2]	glycemic profile compared to the controls (Wistar male rats; ABA 95 μg/Kg BW during OGTT)	glycemic profile compared to the controls (Wistar male rats; ABA 100 mg/Kg BW during OGTT)	insulin AUC compared to control rats (Wistar male rats; ABA 100 mg/Kg BW during OGTT)	insulin response to the glucose load (Wistar male rats; ABA 1 and up to 95 μg/Kg BW)	plasma concentration corresponding to the dose (Wistar male rats; male, Wistar, rat, in vivo)	mean level of plasmatic insulin compared to controls (Wistar male rats; [4])	reduction of insulin AUC compared to controls (Wistar male rats; [4])	AUC of glycemia compared to the controls (Wistar male rats; [5])	glycemic profile compared to the controls (Wistar male rats; [5])	minimum effective dose improving glucose tolerance (db/db mice; dietary intake, mice diabetic by leptin receptor mutation (Guri et al., 2007))	weight increase compared with the controls (db/db mice; mice chronically treated with ABA at 100 mg/Kg BW (literature))	glucose transport (myoblasts)
–	CC1=CC(=O)CC(C)(C)C1(O)/C=C/C(C)=C\C(=O)O (racemic) [ABA, 2-cis, 4-trans-abscisic acid]	significantly lower weight increase	3.2 times	105 min	2693 m	unchanged	reduced compared to the controls	reduced compared to the controls	comparable to that of control rats	significant decrease	less than 10 nM	significantly lower	about 15 times	significantly lower AUC of glycemia	significantly reduced glycemic profile	100 mg/kg	not dissimilar compared with the controls	increased glucose transport
marked increase	CC1=CC(=O)CC(C)(C)[C@@]1(O)/C=C/C(C)=C\C(=O)O[C@@H]1O[C@H](CO)[C@@H](O)[C@H](O)[C@H]1O [ABA-GE, ABA-glucosyl ester]	–	–	–	–	–	–	–	–	–	–	–	–	–	–	–	–	–
